Reference: patent publication US20170023576A1, “NOTCH3 ANTIBODIES AND USES THEREOF” (ONCOMED PHARMACEUTICALS, INC., priority 2014, published 2017)

What was measured:
[1] = tested on: OMP-PN08 pancreatic tumor; test: Pancreatic tumor xenograft growth in vivo, OMP-PN08; design: species or system human; settings: OMP-PN8 tumors in NOD/SCID mice; antibody 40 mg/kg every other week, gemcitabine 20 mg/kg weekly
Description: (§1) Ten primary patient-derived pancreatic tumor xenografts were tested for efficacy in response to anti-Notch2/3 antibody OMP-59R5 in combination with gemcitabine. These tumors were OMP-PN04, OMP-PN07, OMP-PN08, OMP-PN11, OMP-PN13, OMP-PN16, OMP-PN17, OMP-PN21, OMP-PN23, and OMP-PN25.
In one representative example, OMP-PN8 pancreatic tumor cells (2×10^4) were injected into NOD/SCID mice. Tumors were allowed to grow for 22 days until they reached an average volume of 125 mm^3. Tumor-bearing mice were randomized into 4 groups and treated with control antibody, anti-NOTCH2/3 antibody OMP-59R5, gemcitabine, or a combination of OMP-59R5 and gemcitabine. Antibodies were dosed every other week at 40 mg/kg. Gemcitabine was dosed weekly at 20 mg/kg. Tumor growth was monitored and tumor volumes were measured with electronic calipers on the indicated days post-treatment.

[2] = tested on: OMP-PN11 pancreatic tumor; test: Pancreatic tumor xenograft growth in vivo, OMP-PN11; design: species or system human; settings: OMP-PN11 tumors in NOD/SCID mice; antibody 40 mg/kg every other week, gemcitabine 20 mg/kg weekly
Description: as §1
In a second representative example, OMP-PN11 pancreatic tumor cells (5×10^4) were injected into NOD/SCID mice. Tumors were allowed to grow for 21 days until they reached an average volume of 120 mm^3. Tumor-bearing mice were randomized into 4 groups and treated with control antibody, OMP-59R5, gemcitabine, or a combination of OMP-59R5 and gemcitabine. Antibodies were dosed every other week at 40 mg/kg. Gemcitabine was dosed weekly at 20 mg/kg. […] Tumor growth was monitored and tumor volumes were measured with electronic calipers on the indicated days post-treatment.

Substance: OMP-59R5: anti-NOTCH2/3 therapeutic antibody; heavy chain variable region SEQ ID NO:18, light chain variable region SEQ ID NO:26
- tumor growth (FIG. 1A) [1]: significantly inhibited tumor growth
- tumor growth (FIG. 1B) [2]: no effect
